Data reported in patent US6635641B2 (Agouron Pharmaceuticals, Inc., priority 2000, dated 2003).
Counter-ions that a name gives are not always drawn. Like-named read-outs stand apart in the source and are kept apart here.

Biological target: T1, phosphorylated VEGF-R2Δ50 (FLVK-P) (Homo sapiens, UniProt P35968, DEL940-989/E990V)
T1 construct: VEGF-R2Δ50 contains residues 806-939 and 990-1171; made in house; host or cells: baculovirus/insect cells
Test: VEGF-R2 coupled spectrophotometric assay, phosphorylated construct (FLVK-P)
Type: biochemical
Conditions: for inhibition at 1 µM / inhibition at 0.05 µM / inhibition at 5 µM: read-out: FLVK-P percent inhibition; for inhibition at 0.05 µM: @ 50 nM
Description: A construct (VEGF-R2Δ50) of the cytosolic domain of human vascular endothelial growth factor receptor 2 (VEGF-R2) lacking the 50 central residues of the 68 residues of the kinase insert domain was expressed in a baculovirus/insect cell system. Of the 1356 residues of full-length VEGF-R2, VEGF-R2Δ50 contains residues 806-939 and 990-1171, and also one point mutation (E990V) within the kinase insert domain relative to wild-type VEGF-R2. See commonly assigned, co-pending U.S. patent application Ser. No. 09/390,326, filed Sep. 7, 1999, incorporated by reference herein, for discussion of VEGF constructs and expression systems. Autophosphorylation of the purified construct was performed by incubation of the enzyme at a concentration of 4 μM in the presence of 3 mM ATP and 40 mM MgCl2 in 100 mM Hepes, pH 7.5, containing 5% glycerol and 5 mM DTT, at 4° C. for 2 h. […] See Parast et al., Biochemistry, 37, 16788-16801 (1998).
The production of ADP from ATP that accompanies phosphoryl transfer was coupled to oxidation of NADH using phosphoenolpyruvate (PEP) and a system having pyruvate kinase (PK) and lactic dehydrogenase (LDH). The oxidation of NADH was monitored by following the decrease of absorbance at 340 nm (e340=6.22 cm^−1 mM^−1) using a Beckman DU 650 spectrophotometer. Assay conditions for phosphorylated VEGF-R2Δ50 (indicated as FLVK-P in the tables below) were the following: 1 mM PEP; 250 μM NADH; 50 units of LDH/mL; 20 units of PK/mL; 5 mM DTT; 5.1 mM poly(E4Y1); 1 mM ATP; and 25 mM MgCl2 in 200 mM Hepes, pH 7.5. Assay conditions for unphosphorylated VEGF-R2Δ50 (indicated as FLVK in the tables) were the following: 1 mM PEP; 250 μM NADH; 50 units of LDH/mL; 20 units of PK/mL; 5 mM DTT; 20 mM poly(E4Y1); 3 mM ATP; and 60 mM MgCl2 and 2 mM MnCl2 in 200 mM Hepes, pH 7.5. Assays were initiated with 5 to 40 nM of enzyme. Ki values were determined by measuring enzyme activity in the presence of varying concentrations of test compounds. The data were analyzed using Enzyme Kinetic and Kaleidagraph software.

T1 sequence (P35968 with tags, fused parts or gaps DEL940-989/E990V limits assumed): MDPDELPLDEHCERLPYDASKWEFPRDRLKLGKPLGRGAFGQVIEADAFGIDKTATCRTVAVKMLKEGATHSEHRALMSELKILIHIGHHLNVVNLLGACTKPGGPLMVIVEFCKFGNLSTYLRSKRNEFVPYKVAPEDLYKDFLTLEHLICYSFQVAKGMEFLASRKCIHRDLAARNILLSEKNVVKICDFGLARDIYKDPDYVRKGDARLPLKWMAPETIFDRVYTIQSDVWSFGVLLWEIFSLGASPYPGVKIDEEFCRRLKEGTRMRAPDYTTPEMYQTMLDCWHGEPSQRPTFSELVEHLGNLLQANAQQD

Molecule `COc1cc(NC(=O)c2cccc(CSc3nc(N)n[nH]3)c2)cc(OC)c1OC` [Example A-2, N-(3,4,5-Trimethoxyphenyl)-3-[(5-amino-2H-[1,2,4]triazol-3-yl)sulfanylmethy]benzamide] has a Ki (μM) of 100 µM.

Work on `Cc1cc(NC(=O)c2cccc(CSc3nc(N)n[nH]3)c2)ccc1C(C)C` [Example A-4, N-(4-Isopropyl-3-methylphenyl)-3-[(5-amino-2H-[1,2,4]triazol-3-yl)sulfanylmethyl]benzamide] yielded a Ki of 13 µM.

`COc1ccc(NC(=O)c2cccc(CSc3ncnc4[nH]ncc34)c2)cn1` [Example B-2] gave a Ki of 1.82 µM.

`Cc1cc(NC(=O)c2cccc(CSc3ncnc4[nH]ncc34)c2)no1` [Example B-4, N-(5-Methylisoxazol-3-yl)-3-[(1H-pyrazolo[3,4-d]pyrimidin-4-yl)sulfanylmethyl]benzamide] showed a Ki of 35 µM.

Work on `O=C(NCc1ccncc1)c1cccc(CSc2ncnc3[nH]ncc23)c1` [Example B-5, N-(Pyridin-4-yl)methyl-3-[(1H-pyrazolo[3,4-d]pyrimidin-4-yl)sulfanylmethyl]benzamide] yielded a Ki of 11 µM.

With `COc1ccccc1CNC(=O)c1cccc(CSc2ncnc3[nH]ncc23)c1` [Example B-7, N-(2-Methoxybenzyl)-3-[(1H-pyrazolo[3,4-d]pyrimidin-4-yl)sulfanylmethyl]benzamide] the Ki was 3.31 µM.

`COc1ccccc1NC(=O)c1cccc(CSc2ncnc3[nH]ncc23)c1` [Example B-9, N-(2-Methoxyphenyl)-3-[(1H-pyrazolo[3,4-d]pyrimidin-4-yl)sulfanylmethyl]benzamide] was tested, and the Ki was 17 µM.

`CC(C)c1ccc(NC(=O)c2cccc(CSc3ncnc4[nH]ncc34)c2)cc1` [Example B-19, 3-[(1H-Pyrazolo[3,4-d]pyrimidin-4-yl)sulfanylmethyl]-N(4-isopropylphenyl)-benzamide] showed an inhibition at 1 µM of 42%.

In the case of `O=C(Nc1cccc(OC(F)(F)F)c1)c1cccc(CSc2ncnc3[nH]ncc23)c1` [Example B-20], the Ki is reported as 0.026 µM.

`Cc1cc(C)cc(NC(=O)c2cccc(CSc3ncnc4[nH]ncc34)c2)c1` [Example B-21, 3-[(1H-Pyrazolo[3,4-d]pyrimidin-4-yl)sulfanylmethyl]-N(3,5-dimethylphenyl)-benzamide] showed a Ki of 0.208 µM.

`CC(O)c1cccc(NC(=O)c2cccc(CSc3ncnc4[nH]ncc34)c2)c1` (centres unmarked) [Example B-22] gave an inhibition at 1 µM of 32%.

Molecule `CN(C)c1ccc(NC(=O)c2cccc(CSc3ncnc4[nH]ncc34)c2)cc1` [Example B-23, 3-[(1H-Pyrazolo[3,4-d]pyrimidin-4-yl)sulfanylmethyl]-N(4-dimethylaminophenyl)-benzamide] has an inhibition at 1 µM of 17%.

Work on `O=C(Nc1cccc(S(=O)(=O)C(F)(F)F)c1)c1cccc(CSc2ncnc3[nH]ncc23)c1` [Example B-24, 3-[(1H-Pyrazolo[3,4-d]pyrimidin-4-yl)sulfanylmethyl]-N(3-trifluoromethylsulfonylphenyl)-benzamide] yielded a Ki of 0.037 µM.

Molecule `CN(C)c1cccc(NC(=O)c2cccc(CSc3ncnc4[nH]ncc34)c2)c1` [Example B-25, 3-[(1H-Pyrazolo[3,4-d]pyrimidin-4-yl)sulfanylmethyl]-N(3-dimethylaminophenyl)-benzamide] has an inhibition at 1 µM of 26%.

For `Cc1ccc2cc(NC(=O)c3cccc(SCc4cccnc4)c3)ccc2n1` [Example D-3, N-(2-Methyl-quinolin-6-yl)-3-(pyridin-3-ylmethylsulfanyl)-benzamide dihydrochloride], the Ki was 0.133 µM.

`COc1cc(/C=C/c2cc(CNc3cccc(C(=O)Nc4ccccc4)c3)n[nH]2)ccc1O` [Example I-2, 3-[({5-[(E)-2-(4-hydroxy-3-methoxyphenyl)ethenyl]-1H-pyrazol-3-yl}methyl)amino]-N-phenylbenzamide] gave an inhibition at 1 µM of 16%.

With `COc1cc(NC(=O)c2cccc(OCc3cncc4ccccc34)c2)cc(OC)c1OC` [Example K-2, 3-(Isoquinolin-4-yl)methoxy-N-(3,4,5-trimethoxyphenyl)benzamide hydrochloride] the Ki was 0.138 µM.

Molecule `COc1cc(NC(=O)c2cccc(OCc3cccnc3)c2)cc(OC)c1OC` [Example K-5, 3-(Pyridin-3-yl)methoxy-N-(3,4,5-trimethoxyphenyl)benzamide] has a Ki of 1.27 µM.

For `O=C(Nc1ccc2ccccc2c1)c1cccc(OCc2cccnc2)c1` [Example K-6, N-(Naphthalen-2-yl)-3-(pyridin-3-yl)methoxybenzamide], the Ki was 0.2 µM.

For `C=CCn1ccc2cc(NC(=O)c3cccc(OCc4cccnc4)c3)ccc21` [Example K-7, N-(1-Allyl-1H-indol-5-yl)-3-(pyridin-3-yl)methoxy-benzamide], the Ki was 0.122 µM.

With `O=C(Nc1ccc2ncccc2c1)c1cccc(OCc2cccnc2)c1` [Example K-8, 3-(Pyridin-3-yl)methoxy-N-quinolin-6-yl-benzamide] the Ki was 0.707 µM.

`C=CCc1cc(NC(=O)c2cccc(OCc3cncc4ccccc34)c2)cc(CC=C)c1C` [Example R-1, N-(3,5-Diallyl-4-methyl-phenyl)-3-(isoquinolin-4-ylmethoxy)-benzamide] was tested, and the inhibition at 0.05 µM was 49%.

For `O=C(NNc1ccc(C(F)(F)F)cc1)c1cccc(OCc2cncc3ccccc23)c1` [Example R-6, 3-(Isoquinolin-4-ylmethoxy)-benzoic acid N′-(4-trifluoromethyl-phenyl)hydrazide], the inhibition at 5 µM was 16%.

With `O=C(NOCc1ccccc1)c1cccc(OCc2cncc3ccccc23)c1` [Example R-7, N-Benzyloxy-3-(isoquinolin-4-ylmethoxy)-benzamide] the Ki was 0.325 µM.

For `O=C(NNc1ccccc1)c1cccc(OCc2cncc3ccccc23)c1` [Example R-8, 3-(Isoquinolin-4-ylmethoxy)-benzoic acid N′-phenyl-hydrazide], the inhibition at 5 µM was 4%.

Molecule `Cc1cc(C)c2ccc(NC(=O)c3cccc(OCc4cncc5ccccc45)c3)nc2n1` [Example R-9, N-(5,7-dimethyl[1,8]naphthydrin-2-yl)-3-(isoquinolin-4-ylmethoxy)-benzamide] has an inhibition at 1 µM of 9%.

`O=C(Nc1ccccc1)c1cccc(CCc2cncc3ccccc23)c1` [Example S-1, 3-(2-Isoquinolin-4-yl-ethyl)-N-phenyl-benzamide] showed an inhibition at 1 µM of 2%.

`CC1CC(NC(=O)c2cccc(CCc3cncc4ccccc34)c2)CC(C)(C)C1` (centres unmarked) [Example S-2, 3-(2-Isoquinolin-4-yl-ethyl)-N-(3,3,5-trimethyl-cyclohexyl)-benzamide] was tested, and the inhibition at 1 µM was 28%.

With `Cc1cc(C)nc(NC(=O)c2cccc(CCc3cncc4ccccc34)c2)c1` [Example S-6, N-(4,6-Dimethyl-pyridin-2-yl)-3-(2-isoquinolin-4-yl-ethyl)-benzamide] the inhibition at 0.05 µM was 6%.

Work on `Cc1cc(NC(=O)c2cc(CCc3cncc4ccccc34)ccc2F)ccc1C(C)C` [Example T-1, 2-Fluoro-N-(4-isopropyl-3-methyl-phenyl)-5-(2-isoquinolin-4-yl-ethyl)-benzamide] yielded a Ki of 0.0136 µM.

In the case of `Cc1ccc2cc(NC(=O)c3cccc(CCc4cccnc4)c3)ccc2n1` [Example U-1, N-(2-Methyl-quinolin-6-yl)-3-(2-pyridin-3-yl-ethyl)-benzamide hydrochloride], the Ki is reported as 0.068 µM.

With `COc1cc(C(=O)Nc2cccc(CSc3ncnc4[nH]ncc34)c2)ccc1O` [Example V-3, N-{3-[(1H-pyrazolo[3,4-d]-pyrimidin-4-yl)sulfanylmethyl]phenyl}-(4-hydroxy-3-methoxy)benzamide] the inhibition at 1 µM was 42%.
